Patent US11918565B1, “Treatment of post-operative pain via sciatic nerve block with sustained-release liposomal anesthetic compositions” (Pacira Pharmaceuticals, Inc., priority 2022, dated 2024)
Counter-ions that a name gives are not always drawn.

Experiments:
[1] = system: subjects undergoing bunionectomy; test: Postsurgical opioid consumption, opioid-free subjects and time to first opioid rescue, clinical trial #1; assay type: in vivo, human
Method: Clinical Study #1 was a Phase 3, multicenter, randomized, double-blind, active-controlled study in 180 subjects undergoing bunionectomy. Subjects received a sciatic (in the popliteal fossa) nerve block with a single dose of either […] 266 mg ([…] 133 mg (EXP133), or 0.25% bupivacaine HCl (50 mg; BUP50). The study was conducted in two parts (Part A and Part B). Part A was to be completed and analyzed before enrollment in Part B was initiated. Part A was a 3-arm cohort with 66 subjects undergoing bunionectomy to obtain information on pharmacokinetics (PK), pharmacodynamics (PD), efficacy, and safety. Subjects were randomized (1:1:1) to the EXP266, EXP133, and BUP50 treatment arms. Part B was a 2-arm cohort with 119 subjects undergoing bunionectomy to evaluate the efficacy and safety of […] compared with bupivacaine HCl. The dose of the […] arm in Part B was determined based on the interim analysis of the Part A cohort results. On the day of surgery, subjects received an ultrasound-guided sciatic (in the popliteal fossa) nerve block with one of the following treatments: • EXP266 arm: subjects randomized to this treatment arm received 20 mL (266 mg) […] mixed with 10 mL saline (Part A only; per interim analysis was not selected for Part B) • EXP133 arm: subjects randomized to this treatment arm received 10 mL (133 mg) […] mixed with 20 mL saline (Part A and B) • BUP50 arm: subjects randomized to this treatment arm received 20 mL (50 mg) 0.25% bupivacaine HCl mixed with 10 mL saline (Part A and B) Postsurgical pain for breakthrough pain. An unscheduled pain intensity assessment using the NRS (measured as “On a scale from 0 to 10, where 0 equals no pain and 10 equals the worst possible pain, how much pain are you experiencing in your operative foot right now?”) was to be completed immediately prior to administration of any breakthrough pain medication up to 96 h post-surgery. Medications were administered PRN; opioids were not to be given on a pre-determined schedule. […] All postsurgical analgesics administered, were to be recorded through hospital discharge. […]

[2] = system: sciatic nerve (sensory block) in subjects undergoing bunionectomy; test: Pharmacodynamics: onset and duration of sensory block, clinical trial #1 Part A; assay type: in vivo, human
Method: Clinical Study #1 was a Phase 3, multicenter, randomized, double-blind, active-controlled study in 180 subjects undergoing bunionectomy. Subjects received a sciatic (in the popliteal fossa) nerve block with a single dose of either EXPAREL 266 mg (EXP266), EXPAREL 133 mg (EXP133), or 0.25% bupivacaine HCl (50 mg; BUP50). The study was conducted in two parts (Part A and Part B). Part A was to be completed and analyzed before enrollment in Part B was initiated. Part A was a 3-arm cohort with 66 subjects undergoing bunionectomy to obtain information on pharmacokinetics (PK), pharmacodynamics (PD), efficacy, and safety. Subjects were randomized (1:1:1) to the EXP266, EXP133, and BUP50 treatment arms. Part B was a 2-arm cohort with 119 subjects undergoing bunionectomy to evaluate the efficacy and safety of EXPAREL compared with bupivacaine HCl. The dose of the EXPAREL arm in Part B was determined based on the interim analysis of the Part A cohort results.
On the day of surgery, subjects received an ultrasound-guided sciatic (in the popliteal fossa) nerve block with one of the following treatments: • EXP266 arm: subjects randomized to this treatment arm received 20 mL (266 mg) EXPAREL mixed with 10 mL saline (Part A only; per interim analysis was not selected for Part B) • EXP133 arm: subjects randomized to this treatment arm received 10 mL (133 mg) EXPAREL mixed with 20 mL saline (Part A and B) • BUP50 arm: subjects randomized to this treatment arm received 20 mL (50 mg) 0.25% bupivacaine HCl mixed with 10 mL saline (Part A and B)
Efficacy assessments included pain intensity scores focused on the operative foot using the Numeric Rating Scale (NRS), total postsurgical opioid consumption in OMED, time to first opioid consumption post-surgery, and percentage of opioid-free patients through 96 hours, and worst and average NRS pain intensity scores at 24 h, 48 h, 72 h, and 96 h from end of surgery. Additionally, blood samples for pharmacokinetic (PK) analysis (area under the curve [AUC], maximum plasma concentration [Cmax], time of maximum plasma concentration [Tmax], including early and late Cmax and Tmax (EXP133-ADMIX arm only), apparent terminal elimination half-life [t1/2el], apparent clearance [CL/F], and apparent volume of distribution [Vd/F]). Pharmacodynamic (PD) assessment data, including median time to onset of sensory block and motor block, and median duration of sensory and motor block were collected.
Pharmacodynamic endpoints included: onset of sensory block, offset of sensory block, duration of sensory block, onset of motor block, offset of motor block, and duration of motor block.

With `CCCCN1CCCCC1C(=O)Nc1c(C)cccc1C` (stereo not drawn) [BUP50, bupivacaine HCl] the “estimate of the proportion of opioid-free subjects” value ([1]; 0 to 96 h post-surgery, EXP266 Part A, EXP133 and BUP50 Part A+B) was 9.8%, the “proportion of subjects who received opioid breakthrough medication” value ([1]; EXP266 Part A, EXP133 and BUP50 Part A+B) was 90.2% and the “median time to first rescue medication” value ([1]; post-surgery, Kaplan-Meier) was 20.68 h. The “subjects without sensation at the first time point with ≥50%” value ([2]; 30 min post-dose for BUP50, 2 h for EXP266 and EXP133) was 59.1%, the “subjects who still did not have complete sensation” value ([2]; 60 h post-dose) was “all BUP50 subjects had regained sensation” and the “median duration of sensory block” value ([2]; human, in vivo) was 29.10 h. The “median time to sensory block” value ([2]; human, in vivo) was 0.46 h, the “subjects with sensory block onset observed” value ([2]; human, in vivo) was 63.6% and the “first time point at which sensation was not present in ≥50% of subjects” value ([2]; post-dose) was 30 min.
